Data taken from patent publication US9884063B2, “Amido-substituted azole compounds” (Bayer Pharma Aktiengesellschaft, priority 2014, dated 2018).
Structures can show the parent of a compound that is named as a salt.

Experiments:
[1] = target: T1, TNKS1 (Homo sapiens, UniProt O95271); test: Modified TNKS1 Assay 3 (BPS kit #80573, biotin-NAD+, 96 well); type: biochemical; details: human TNKS1, BPS kit #80573, 96 well
T1 sequence (O95271 1-1327): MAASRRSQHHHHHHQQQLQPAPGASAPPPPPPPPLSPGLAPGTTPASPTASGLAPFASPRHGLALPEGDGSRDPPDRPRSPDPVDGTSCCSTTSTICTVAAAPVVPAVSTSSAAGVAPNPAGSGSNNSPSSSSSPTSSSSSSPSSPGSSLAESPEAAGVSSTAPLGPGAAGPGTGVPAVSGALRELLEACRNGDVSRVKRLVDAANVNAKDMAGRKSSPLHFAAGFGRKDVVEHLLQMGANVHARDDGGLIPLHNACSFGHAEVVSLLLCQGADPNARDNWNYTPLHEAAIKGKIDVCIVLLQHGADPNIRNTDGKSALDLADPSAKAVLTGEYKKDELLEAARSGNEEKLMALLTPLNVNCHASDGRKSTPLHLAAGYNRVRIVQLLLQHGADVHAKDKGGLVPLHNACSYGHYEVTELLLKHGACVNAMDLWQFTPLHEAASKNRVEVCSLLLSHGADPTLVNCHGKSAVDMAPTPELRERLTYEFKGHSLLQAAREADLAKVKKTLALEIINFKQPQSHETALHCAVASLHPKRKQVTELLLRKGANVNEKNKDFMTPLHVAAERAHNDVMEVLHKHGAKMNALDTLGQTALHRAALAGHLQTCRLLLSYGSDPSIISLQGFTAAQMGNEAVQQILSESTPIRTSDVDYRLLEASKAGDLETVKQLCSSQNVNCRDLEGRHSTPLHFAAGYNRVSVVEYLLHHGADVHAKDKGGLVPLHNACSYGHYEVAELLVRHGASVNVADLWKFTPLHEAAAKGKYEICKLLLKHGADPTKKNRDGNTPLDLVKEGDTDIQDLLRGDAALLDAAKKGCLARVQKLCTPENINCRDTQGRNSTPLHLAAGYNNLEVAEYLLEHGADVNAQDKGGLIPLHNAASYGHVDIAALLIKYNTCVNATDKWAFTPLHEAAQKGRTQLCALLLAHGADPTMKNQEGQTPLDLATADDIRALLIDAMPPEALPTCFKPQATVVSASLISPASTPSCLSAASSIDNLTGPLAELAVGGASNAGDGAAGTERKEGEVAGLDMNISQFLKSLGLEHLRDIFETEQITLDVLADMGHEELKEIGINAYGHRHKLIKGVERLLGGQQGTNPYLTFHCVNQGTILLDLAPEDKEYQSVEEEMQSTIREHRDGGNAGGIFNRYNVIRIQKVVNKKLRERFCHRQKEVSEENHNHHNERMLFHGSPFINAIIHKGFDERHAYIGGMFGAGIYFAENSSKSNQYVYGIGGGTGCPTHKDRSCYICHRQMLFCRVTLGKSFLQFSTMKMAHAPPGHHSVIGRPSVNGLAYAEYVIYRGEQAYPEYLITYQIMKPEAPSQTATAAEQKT
Method in brief: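 Chemiluminescent assay of TNKS1-catalysed ribosylation of a protein substrate with biotin-labelled NAD+, detected via streptavidin-HRP; run per kit protocol. Inhibition lowers the signal, and IC50 is the compound concentration halving the normalised readout.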

[2] = test system: HEK293 FOP control reporter cell line; test: HEK293 FOP Assay (FOP control vector luciferase reporter); type: cell-based; details: Homo sapiens
Method in brief: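 Stable HEK293 line carrying the FOP vector (randomized, non-functional TCF sites; Geneticin-selected) was run in parallel with the TOP line. Cells were plated 24 h ahead at 10000/well and given recombinant human Wnt-3a at 2500–5 ng/ml. Compounds were tested at 50 μM–15 nM (3.16-fold steps) in CAFTY buffer, pH 7.4, with 2 mM Ca2+ and 0.01% BSA.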

[3] = HEK293 FOP control reporter cell line, 16 hours incubation, compound dilution series 50 μM to 15 nM
[4] = HEK293 FOP control reporter cells, 16 hours, luciferase, dilution series from 50 μM
[5] = HEK293, 16 h, HEK293 FOP control reporter cell line, 16 hours incubation, compound dilution series 50 μM to 15 nM

Compound	IC50 [1]	IC50 [2, 3]	IC50 [2, 4]	IC50 [2, 5]
O=C(Nc1ccc(NC(=O)c2[nH]cnc2C(=O)NCCN2CCCCC2)cc1)c1ccc(F)cc1 [Example 33, N^4-{4-[(4-fluorobenzoyl)amino]phenyl}-N^5-[2-(piperidin-1-yl)ethyl]-1H-imidazole-4,5-dicarboxamide]	> 0.5 µM		≥ 50 µM	
O=C(Nc1ccc(NC(=O)c2nc[nH]c2C(=O)NCCN2CCC(F)(F)CC2)cc1)c1ccccc1Cl [Example 214, N^4-{4-[(2-chlorobenzoyl)amino]phenyl}-N^5-[2-(4,4-difluoropiperidin-1-yl)ethyl]-1H-imidazole-4,5-dicarboxamide]	0.2 µM	22 µM		
O=C(Nc1ccc(NC(=O)c2nc[nH]c2C(=O)N[C@@H]2CCNC2)cc1)c1ccc(F)cc1Cl [Example 282, N^4-{4-[(2-chloro-4-fluorobenzoyl)amino]phenyl}-N^5-[(3R)-pyrrolidin-3-yl]-1H-imidazole-4,5-dicarboxamide hydrochloride salt]	0.06 µM			50 µM
O=C(Nc1ccc(NC(=O)c2[nH]cnc2C(=O)NCCN2CCCCC2)cc1F)c1ccccc1Cl [Example 82, N^5-{4-[(2-chlorobenzoyl)amino]-3-fluorophenyl}-N^4-[2-(piperidin-1-yl)ethyl]-1H-imidazole-4,5-dicarboxamide]	0.01 µM	44 µM		
O=C(Nc1ccc(NC(=O)c2nc[nH]c2C(=O)NCCN2CCC(F)(F)CC2)cc1)c1ccc(F)cc1Br [Example 215, N^4-{4-[(2-bromo-4-fluorobenzoyl)amino]phenyl}-N^5-[2-(4,4-difluoropiperidin-1-yl)ethyl]-1H-imidazole-4,5-dicarboxamide]	0.21 µM	29.5 µM		
O=C(Nc1ccc(NC(=O)c2nc[nH]c2C(=O)NCC2CCCN2)cc1)c1ccc(F)cc1Cl (centres unmarked) [Example 284, N^4-{4-[(2-chloro-4-fluorobenzoyl)amino]phenyl}-N^5-(pyrrolidin-2-ylmethyl)-1H-imidazole-4,5-dicarboxamide hydrochloride salt]	0.06 µM			50 µM
O=C(Nc1ccc(NC(=O)c2ocnc2C(=O)NCCN2CCCC(F)C2)cc1)c1ccc(F)cc1Cl (centres unmarked) [Example 220, N^5-{4-[(2-chloro-4-fluorobenzoyl)amino]phenyl}-N^4-[2-(3-fluoropiperidin-1-yl)ethyl]-1,3-oxazole-4,5-dicarboxamide]	0.26 µM	36 µM		
CC(CN1CCOCC1)NC(=O)c1[nH]cnc1C(=O)Nc1ccc(NC(=O)c2ccc(F)cc2Cl)cc1 (centres unmarked) [Example 268, N^4-{4-[(2-chloro-4-fluorobenzoyl)amino]phenyl}-N^5-[1-(morpholin-4-yl)propan-2-yl]-1H-imidazole-4,5-dicarboxamide]	0.11 µM	41 µM		
O=C(Nc1ccc(NC(=O)c2ocnc2C(=O)NCCN2CC[C@H](F)C2)cc1)c1ccc(F)cc1Cl [Example 221, N^5-{4-[(2-chloro-4-fluorobenzoyl)amino]phenyl}-N^4-{2-[(3S)-3-fluoropyrrolidin-1-yl]ethyl}-1,3-oxazole-4,5-dicarboxamide]	> 0.5 µM	12 µM		
CNC(=O)c1nc[nH]c1C(=O)Nc1ccc(NC(=O)c2c(C)cc(C)cc2C)cc1 [Example 35, N^5-{4-[(mesitylcarbonyl)amino]phenyl}-N^4-methyl-1H-imidazole-4,5-dicarboxamide]	> 0.5 µM		≥ 50 µM	

Now from value to compound, other results behind:

IC50 [1]	Compound	IC50 [2, 3]	IC50 [2, 4]	IC50 [2, 5]
0.18 µM	O=C(Nc1ccc(NC(=O)c2nc[nH]c2C(=O)NCCN2CCCC(F)(F)C2)cc1)c1ccc(F)cc1Cl [Example 225, N^4-{4-[(2-chloro-4-fluorobenzoyl)amino]phenyl}-N^5-[2-(3,3-difluoropiperidin-1-yl)ethyl]-1H-imidazole-4,5-dicarboxamide]	44 µM		
0.26 µM	O=C(Nc1ccc(NC(=O)c2nc[nH]c2C(=O)NCCN2CCC(F)(F)CC2)cc1)c1ccc(F)cc1Cl [Example 224, N^4-{4-[(2-chloro-4-fluorobenzoyl)amino]phenyl}-N^5-[2-(4,4-difluoropiperidin-1-yl)ethyl]-1H-imidazole-4,5-dicarboxamide]	27 µM		
0.02 µM	CN1CCN(CCCNC(=O)c2nc[nH]c2C(=O)Nc2ccc(NC(=O)c3ccc(F)cc3Cl)cc2)CC1 [Example 392, N^5-{4-[(2-chloro-4-fluorobenzoyl)amino]phenyl}-N^4-[3-(4-methylpiperazin-1-yl)propyl]-1H-imidazole-4,5-dicarboxamide]	18 µM		
0.002 µM	O=C(Nc1ccc(NC(=O)c2[nH]cnc2C(=O)NCCN2CCCCC2)cc1F)c1ccc(F)cc1Cl [Example 74, N^5-{4-[(2-chloro-4-fluorobenzoyl)amino]-3-fluorophenyl}-N^4-[2-(piperidin-1-yl)ethyl]-1H-imidazole-4,5-dicarboxamide]	14 µM		
0.01 µM	O=C(Nc1ccc(NC(=O)c2nc[nH]c2C(=O)NCCCN2CCCC2)cc1)c1ccc(F)cc1Cl [Example 274, N^4-{4-[(2-chloro-4-fluorobenzoyl)amino]phenyl}-N^5-[3-(pyrrolidin-1-yl)propyl]-1H-imidazole-4,5-dicarboxamide]	45 µM		
0.09 µM	O=C(Nc1ccc(NC(=O)c2nc[nH]c2C(=O)NCCN2CCC(F)CC2)cc1)c1ccc(F)cc1Cl [Example 230, N^4-{4-[(2-chloro-4-fluorobenzoyl)amino]phenyl}-N^5-[2-(4-fluoropiperidin-1-yl)ethyl]-1H-imidazole-4,5-dicarboxamide]	27 µM		
0.22 µM	O=C(Nc1ccc(NC(=O)c2nc[nH]c2C(=O)NC2CCOCC2)cc1)c1ccc(F)cc1Cl [Example 234, N^4-{4-[(2-chloro-4-fluorobenzoyl)amino]phenyl}-N^5-(tetrahydro-2H-pyran-4-yl)-1H-imidazole-4,5-dicarboxamide]	16 µM		
0.09 µM	COc1cc(NC(=O)c2[nH]cnc2C(=O)NCCN2CCCCC2)ccc1NC(=O)c1ccc(F)cc1Cl [Example 97, N^5-{4-[(2-chloro-4-fluorobenzoyl)amino]-3-methoxyphenyl}-N^4-[2-(piperidin-1-yl)ethyl]-1H-imidazole-4,5-dicarboxamide]	29 µM		
> 0.5 µM	CNC(=O)c1nc[nH]c1C(=O)Nc1ccc(NC(=O)c2cccc(C)c2Cl)cc1 [Example 346, N^5-{4-[(2-chloro-3-methylbenzoyl)amino]phenyl}-N^4-methyl-1H-imidazole-4,5-dicarboxamide]	26 µM		
0.07 µM	O=C(Nc1ccc(NC(=O)c2[nH]cnc2C(=O)NC2CC2)cc1)c1ccc(F)cc1Cl [Example 45, N^5-{4-[(2-chloro-4-fluorobenzoyl)amino]phenyl}-N^4-cyclopropyl-1H-imidazole-4,5-dicarboxamide]	40 µM		
0.29 µM	O=C(Nc1ccc(NC(=O)c2nc[nH]c2C(=O)NCCN2CC[C@H](F)C2)cc1)c1ccc(F)cc1Cl [Example 232, N^4-{4-[(2-chloro-4-fluorobenzoyl)amino]phenyl}-N^5-{2-[(3S)-3-fluoropyrrolidin-1-yl]ethyl}-1H-imidazole-4,5-dicarboxamide]	35 µM		
> 0.5 µM	O=C(Nc1ccc(NC(=O)c2[nH]cnc2C(=O)NCCC2CC2)cc1)c1cc(F)c(F)cc1Cl [Example 49, N^5-{4-[(2-chloro-4,5-difluorobenzoyl)amino]phenyl}-N^4-(2-cyclopropylethyl)-1H-imidazole-4,5-dicarboxamide]	17 µM		
